Experimental data taken from US20210382058A1, “PATIENT SELECTION FOR TREATMENT OF MYC POSITIVE CANCERS WITH INDENOISOQUINOLINES” (Purdue Research Foundation, priority 2020, published 2021).
Read-outs that look alike come from different tables or passages of the source.

Columns and labels:
human topoisomerase I = target: T1, human topoisomerase I (Homo sapiens, UniProt P11387); details: relative topoisomerase I inhibition levels, previously determined, six levels (0 - 5, +++++ = 5); cited from earlier work
T1 sequence (P11387 1-765): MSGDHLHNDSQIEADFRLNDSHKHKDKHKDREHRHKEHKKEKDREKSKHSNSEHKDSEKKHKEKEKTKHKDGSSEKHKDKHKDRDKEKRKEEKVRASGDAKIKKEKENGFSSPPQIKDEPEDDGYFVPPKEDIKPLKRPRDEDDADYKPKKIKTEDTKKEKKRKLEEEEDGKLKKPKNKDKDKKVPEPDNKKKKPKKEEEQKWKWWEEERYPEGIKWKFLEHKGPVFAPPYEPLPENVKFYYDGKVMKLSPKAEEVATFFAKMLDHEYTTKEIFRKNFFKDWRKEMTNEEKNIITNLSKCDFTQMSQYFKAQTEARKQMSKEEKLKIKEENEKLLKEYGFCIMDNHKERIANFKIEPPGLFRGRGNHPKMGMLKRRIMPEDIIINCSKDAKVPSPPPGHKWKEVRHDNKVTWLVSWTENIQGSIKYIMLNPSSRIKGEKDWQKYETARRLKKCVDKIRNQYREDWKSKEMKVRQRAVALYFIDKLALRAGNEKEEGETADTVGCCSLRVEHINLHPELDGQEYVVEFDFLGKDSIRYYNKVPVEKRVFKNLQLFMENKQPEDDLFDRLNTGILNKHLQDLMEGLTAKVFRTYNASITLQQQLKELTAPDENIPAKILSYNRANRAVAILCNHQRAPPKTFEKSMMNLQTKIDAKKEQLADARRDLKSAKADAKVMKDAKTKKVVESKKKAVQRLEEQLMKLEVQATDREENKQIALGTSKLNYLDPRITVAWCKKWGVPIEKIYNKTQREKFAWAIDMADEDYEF

NCI-60 cancer cell lines = assay: NCI-60 cancer cell line drug screen (GI50, MGM); assay type: cell-based, human; details: Homo sapiens; for GI50: read-out: Antiproliferative Activities [GI50 (μM)]
Description: Cancer cells were incubated with the test compounds at five concentrations ranging from 100 μM to 10 nM for 48 h. […] The approximate average of GI50 values across the entire panel of NCI-60 cancer cell lines for each compound was recorded as the MGM value.

COc1cc2c(cc1O)-c1c(c3ccc([N+](=O)[O-])cc3c(=O)n1CCCN1CCOCC1)C2=O [Compound 36]
Top1 Inhibiton (human topoisomerase I): ++ (medium inhibition, ++, MYC expression inhibited at 2.0 μM, or no clear dose-dependent MYC inhibition)
GI50 (NCI-60 cancer cell lines; 786-0, Renal Cancer, 786-0): 0.21 µM
GI50 (NCI-60 cancer cell lines; A498, Renal Cancer, A498): 0.07 µM
GI50 (NCI-60 cancer cell lines; A549, Non-Small Cell Lung Cancer, A549/ATCC): 0.52 µM
GI50 (NCI-60 cancer cell lines; ACHN, Renal Cancer, ACHN): 0.05 µM
GI50 (NCI-60 cancer cell lines; BT-549, Breast Cancer, BT-549): 0.12 µM
GI50 (NCI-60 cancer cell lines; CAKI-1, Renal Cancer, CAKI-1): 0.12 µM
GI50 (NCI-60 cancer cell lines; CCRF-CEM, Leukemia, CCRF-CEM): 0.05 µM
GI50 (NCI-60 cancer cell lines; COLO 205, Colon Cancer, COLO 205): 7.76 µM
GI50 (NCI-60 cancer cell lines; DU-145, Prostate Cancer, DU-145): 0.14 µM
GI50 (NCI-60 cancer cell lines; HCC 2998, Colon Cancer, HCC-2998): 1.42 µM
GI50 (NCI-60 cancer cell lines; HCT-15, Colon Cancer, HCT-15): 1.53 µM
GI50 (NCI-60 cancer cell lines; HCT-116, Colon Cancer, HCT-116): 0.22 µM
GI50 (NCI-60 cancer cell lines; HL-60, Leukemia, HL-60(TB)): 0.08 µM
GI50 (NCI-60 cancer cell lines; HOP-62, Non-Small Cell Lung Cancer, HOP-62): 0.12 µM
GI50 (NCI-60 cancer cell lines; HOP-92, Non-Small Cell Lung Cancer, HOP-92): 0.28 µM
GI50 (NCI-60 cancer cell lines; HT-29, Colon Cancer, HT29): 1.18 µM
GI50 (NCI-60 cancer cell lines; Hs-578T, Breast Cancer, HS 578T): 1.97 µM
GI50 (NCI-60 cancer cell lines; IGROV-1, Ovarian Cancer, IGROV1): 1.52 µM
GI50 (NCI-60 cancer cell lines; K562, Leukemia, K-562): 0.09 µM
GI50 (NCI-60 cancer cell lines; KM12, Colon Cancer, KM12): 1.04 µM
GI50 (NCI-60 cancer cell lines; LOX IMVI, Melanoma, LOX IMVI): 0.09 µM
GI50 (NCI-60 cancer cell lines; Leukemia, SR): 0.03 µM
GI50 (NCI-60 cancer cell lines; MCF7, Breast Cancer, MCF7): 0.05 µM
GI50 (NCI-60 cancer cell lines; MDA-MB-231, Breast Cancer, MDA-MB-231/ATCC): 2.06 µM
GI50 (NCI-60 cancer cell lines; MDA-MB-435, Melanoma, MDA-MB-435): 0.89 µM
GI50 (NCI-60 cancer cell lines; MDA-MB-468, Breast Cancer, MDA-MB-468): 0.14 µM
GI50 (NCI-60 cancer cell lines; MOLT-4, Leukemia, MOLT-4): 0.03 µM
GI50 (NCI-60 cancer cell lines; Malme-3M, Melanoma, MALME-3M): 1.16 µM
GI50 (NCI-60 cancer cell lines; Melanoma, M14): 0.08 µM
GI50 (NCI-60 cancer cell lines; NCI-H23, Non-Small Cell Lung Cancer, NCI-H23): 0.17 µM
GI50 (NCI-60 cancer cell lines; NCI-H226, Non-Small Cell Lung Cancer, NCI-H226): 0.45 µM
GI50 (NCI-60 cancer cell lines; NCI-H322M, Non-Small Cell Lung Cancer, NCI-H322M): 0.66 µM
GI50 (NCI-60 cancer cell lines; NCI-H460, Non-Small Cell Lung Cancer, NCI-H460): 0.03 µM
GI50 (NCI-60 cancer cell lines; NCI-H522, Non-Small Cell Lung Cancer, NCI-H522): 0.05 µM
GI50 (NCI-60 cancer cell lines; OVCAR-3, Ovarian Cancer, OVCAR-3): 0.57 µM
GI50 (NCI-60 cancer cell lines; OVCAR-4, Ovarian Cancer, OVCAR-4): 1.29 µM
GI50 (NCI-60 cancer cell lines; OVCAR-5, Ovarian Cancer, OVCAR-5): 3.6 µM
GI50 (NCI-60 cancer cell lines; OVCAR-8, Ovarian Cancer, OVCAR-8): 0.45 µM
GI50 (NCI-60 cancer cell lines; Ovarian Cancer, NCl/ADR-RES): 0.28 µM
GI50 (NCI-60 cancer cell lines; Prostate Cancer, PC-3): 0.67 µM
GI50 (NCI-60 cancer cell lines; RPMI-8226, Leukemia, RPMI-8226): 0.12 µM
GI50 (NCI-60 cancer cell lines; RXF 393, Renal Cancer, RXF 393): 0.46 µM
GI50 (NCI-60 cancer cell lines; Renal Cancer, U0-31): 0.07 µM
GI50 (NCI-60 cancer cell lines; SF-268, CNS Cancer, SF-268): 0.04 µM
GI50 (NCI-60 cancer cell lines; SF-295, CNS Cancer, SF-295): 0.18 µM
GI50 (NCI-60 cancer cell lines; SF-539, CNS Cancer, SF-539): 0.27 µM
GI50 (NCI-60 cancer cell lines; SK-MEL-2, Melanoma, SK-MEL-2): 9.44 µM
GI50 (NCI-60 cancer cell lines; SK-MEL-5, Melanoma, SK-MEL-5): 0.22 µM
GI50 (NCI-60 cancer cell lines; SK-MEL-28, Melanoma, SK-MEL-28): 1.37 µM
GI50 (NCI-60 cancer cell lines; SK-OV-3, Ovarian Cancer, SK-OV-3): 0.24 µM
GI50 (NCI-60 cancer cell lines; SN12C, Renal Cancer, SN12C): 0.2 µM
GI50 (NCI-60 cancer cell lines; SNB-19, CNS Cancer, SNB-19): 0.39 µM
GI50 (NCI-60 cancer cell lines; SNB-75, CNS Cancer, SNB-75): 0.21 µM
GI50 (NCI-60 cancer cell lines; SW-620, Colon Cancer, SW-620): 0.08 µM
GI50 (NCI-60 cancer cell lines; T47D, Breast Cancer, T-47D): 0.56 µM
GI50 (NCI-60 cancer cell lines; TK-10, Renal Cancer, TK-10): 2.12 µM
GI50 (NCI-60 cancer cell lines; U-251, CNS Cancer, U251): 0.12 µM
GI50 (NCI-60 cancer cell lines; UACC-62, Melanoma, UACC-62): 0.05 µM
GI50 (NCI-60 cancer cell lines; UACC-257, Melanoma, UACC-257): 0.48 µM
mean GI50 across NCI-60 panel (MGM) (NCI-60 cancer cell lines; average of GI50 values across the entire panel of NCI-60 cancer cell lines): 280 nM
